Measured values published in patent US11091476B2, “Protein kinase inhibitors, preparation method and medical use thereof” (Gan & Lee Pharmaceuticals, priority 2015, dated 2021).
Read-outs that look alike come from different tables or passages of the source.

Key:
CDK6/CyclinD3 = CDK6/CyclinD3 (Homo sapiens (Human), UniProt Q00534); assay: CDK kinase inhibitory activity, ADP-Glo Kinase Assay, CDK6/CyclinD3; format: biochemical
CDK9/CyclinD3 = CDK9/CyclinD3 (Homo sapiens (Human), UniProt P50750); assay: Kinase inhibitory activity, ADP-Glo Kinase Assay, CDK9/CyclinD3; format: biochemical
Procedure, shortened: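 Human CDK9/CyclinD3 ADP-Glo assay: compounds in 5-fold serial dilutions from 50 μM preincubated with kinase, then substrate plus ATP (50 μM ATP solution, stock concentration before mixing) added for 90 min at 37° C. ADP-Glo and detection reagents added, luminescence read; IC50 fitted from inhibition rates.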

CDK2/CyclinE1 = CDK2/CyclinE1 (Homo sapiens (Human), UniProt P24941); assay: Kinase inhibitory activity on CDK2/CyclinE1; format: biochemical
Description: 1.2 Experimental Preparation • 1.2.1 Preparation of Kinase Reaction Buffer I: The 5×Reaction Buffer A (Promega; V307A-C) provided in the kit was mixed and diluted with MILLI-Q® H2O and 0.1 M DTT (dithiothreitol) to give 4× kinase buffer, and then MILLI-Q® H2O was further added to finally formulate the solution into 1× Kinase buffer.
1 μl of 10 mM standard substance stock solution was taken and added to 9 μl of kinase reaction buffer I and mixed well; then 90 μl of kinase reaction buffer I was added and mixed well; then 100 μl of kinase reaction buffer I was added and mixed well. The final concentration was 50 μM. • b. 40 μl of kinase reaction buffer II was added into B2 to B10 of a 96-well plate, and 50 μl of the above solution was added into B1; • c. 10 μl of solution was taken from well B1, added into B2, and mixed well; then 10 μl of the resulting solution was taken and added into B3, and dilution was carried out in sequence to B9, so as to obtain control solutions that are diluted by 5-fold sequentially. • (2) Preparation of test compound solution: • a. […]
(§1) The inhibition rate of each compound at each concentration point was calculated by the formula as follows and curve fitting was performed by GraphPad Prism 5 software to obtain the IC50 value.

CDK1/CyclinA2 = CDK1/CyclinA2 (Homo sapiens (Human), UniProt P06493); assay: CDK kinase inhibitory activity, ADP-Glo Kinase Assay, CDK1/CyclinA2; format: biochemical
[1] = Rat pharmacokinetic determination (LC/MS/MS of plasma); format: in vivo, SD rats; details: for bioavailability: oral, intragastric 5 mg/kg vs intravenous 2 mg/kg; for AUC(0-inf): read-out: Area under curve AUC0-∞; for half-life: read-out: Half life T1/2 (converted); for AUC(0-t): read-out: Area under curve AUC0-t; for MRT: read-out: Retention time MRT; for Vd: read-out: Apparent volume of distribution VZ; for clearance: read-out: Clearance rate Cl
Description: Rat Pharmacokinetic Determination of Representative Compounds of the Present Disclosure
SD rats were used as the test animals, and the concentrations of the drugs in the plasma of rats at different time points after the intravenous administration and intragastric administration of the representative compounds were determined by LC/MS/MS, so as to study the pharmacokinetic behavior of the compounds of the disclosure in rats and evaluate the pharmacokinetic characteristics thereof.
Intragastric administration: An appropriate amount of sample was weighed, and added with 0.1% hydroxyethyl cellulose/0.5% TWEEN®80 to a final volume to give 1 mg/ml solution.
Whole blood was anticoagulated with EDTA-K2 and centrifuged, the supernatant was removed, and the residue was frozen at −20° C. until sample analysis. Plasma samples were analyzed by LC-MS/MS, sample pretreatment was performed using a protein precipitation method, the linear range of sample analysis was 1-2000 ng/ml, and the lowest quantification limit was 1 ng/ml.

[2] = test system: Human glioma cell line U87 MG; assay: Inhibition of proliferation of the U87 MG cell line (DAPI, In Cell Analyzer); format: cell-based; details: for IC50: Homo sapiens, U-87 MG, 72 hours incubation, read-out: IC50, proliferation of U87MG Cell Line
Description: as §1

[3] = male, SD, rat, plasma, po, rats, single intragastric administration, 5 mg/kg
[4] = male, rat, plasma, po, rats, single intragastric administration, 5 mg/kg, Mean ± SD
[5] = male, rat, plasma, rats, single intravenous administration, 2 mg/kg, Mean ± SD

## CCN1CCC(c2ccc(Nc3ncc(F)c(-c4cc(F)c5c(c4)C4(CCCC4)C(C)=N5)n3)nc2)CC1 [Example 12, N-(5-(1-ethylpiperidin-4-yl)pyridin-2-yl)-5-fluoro-4-(7′-fluoro-2′-methylspiro [cyclopentane-1,3′-indol]-5′-yl)pyrimidine-2-amino]
CDK6/CyclinD3
  IC50: 3.78 nM
CDK6/CyclinD3; ratio of IC50s, selectivity for CDK6 over CDK1
  CDK1/CDK6: 283.33
CDK6/CyclinD3; ratio of IC50s, selectivity for CDK6 over CDK9
  CDK9/CDK6: 18.75
CDK6/CyclinD3; ratio of IC50s, selectivity for CDK6 over Pim-1
  Pim-1/CDK6: 3.99
CDK9/CyclinD3
  IC50: 57.2 nM
CDK2/CyclinE1
  IC50: 394 nM
CDK1/CyclinA2
  IC50: 1070 nM

## CC1=Nc2c(F)cc(-c3nc(Nc4ccc(C5CCN(C)CC5)cn4)ncc3F)cc2C12CCCC2 [Example 17, 5-Fluoro-4-(7′-fluoro-2′-methylspiro[cyclopentane-1,3′-indol]-5′-yl)-N-(5-(1-methylpiperidin-4-yl)pyridin-2-yl)pyrimidine-2-amino]
[1]; male, SD, rat, plasma, rats
  bioavailability: 102%
[1]; [3]
  AUC(0-inf): 5260 ng·h/mL
  half-life: 2 h
[1]; [4]
  AUC(0-t): 2610 ± 1220 ng·h/mL
  MRT: 10.2 ± 0.27 h
[1]; male, rat, plasma, po, rats, single intragastric administration, 5 mg/kg, Mean ± SD, read-out: Blood concentration Cmax
  Cmax: 188 ± 75 ng/mL
[1]; [5]
  Vd: 19.4 ± 5.89 L/kg
  AUC(0-t): 1020 ± 239 ng·h/mL
  AUC(0-inf): 1220 ± 456 ng·h/mL
  clearance: 30 ± 11.1 mL/min/kg
  half-life: 8.67 ± 4.98 h
  MRT: 7.78 ± 1.3 h
[1]; relative to LY2835219
  Bioavailability in rats, in words: higher bioavailability
[2]
  IC50: 35.4 nM
[2]; experimental conclusion
  Inhibitory activity on proliferation of the U87MG cell line, in words: significant inhibitory activity
CDK6/CyclinD3
  IC50: 0.73 nM
CDK6/CyclinD3; test conclusion
  Inhibitory effect on CDK6, in words: higher enzymatic activity for CDK6
CDK9/CyclinD3
  IC50: 5.36 nM
CDK2/CyclinE1
  IC50: 2320 nM
CDK1/CyclinA2
  IC50: 2710 nM

## CCN1CCN(Cc2ccc(Nc3ncc(F)c(-c4cc(F)c5nc(C)n(C(C)C)c5c4)n3)nc2)CC1 [LY2835219, reference compound]
[1]; male, SD, rat, plasma, rats
  bioavailability: 87.4%
[1]; [3]
  AUC(0-inf): 3440 ng·h/mL
[1]; [4]
  AUC(0-t): 3280 ± 731 ng·h/mL
[1]; [5]
  Vd: 6.95 ± 2.43 L/kg
  AUC(0-t): 1500 ± 337 ng·h/mL
  clearance: 22.4 ± 4.49 mL/min/kg
  MRT: 3.82 ± 1.44 h
[2]
  IC50: 151 nM
